Source: the RepoRT retention time repository

assay: Agilent ZORBAX 300 SB-C18, 150 × 1 mm, 3.5 µm; A: water + 0.01% heptafluorobutyric acid; B: acetonitrile + 0.01% heptafluorobutyric acid; gradient (min/%B) 0/0 100/90; details: stereoisomer not certain

Row | LC retention time [min] | Compound
1 | 10.3 | COc1ccc(NC(=O)c2ccc(N3C(=O)CCC3=O)cc2)cc1
2 | 6.26 | Cc1ccncc1
3 | 6.92 | CNCCc1ccccn1
4 | 7.22 | Nc1ccc(CCc2ccncc2)cc1
5 | 7.08 | CC(c1ccccc1)C(N)C(=O)O (configuration not stated)
6 | 8.71 | Cc1cccc(Nc2cc(=O)[nH]c(=O)[nH]2)c1C
7 | 8.12 | O=C(CNC(=O)c1ccco1)NN=Cc1ccco1
8 | 2.58 | CNCc1n[nH]c(=O)[nH]1
9 | 17.8 | CCCCCCCCCCNCCCCCCCCCC
10 | 9.02 | CC(=O)Nc1nc(=S)n(-c2ccccc2)[nH]1
11 | 7.6 | NCc1ccccc1
12 | 7.1 | CC1=NCC(=O)N1c1cccc(N)c1
13 | 9.53 | Nc1cccc(Nc2ccccc2)c1
14 | 16.9 | CC(C)c1ccc(C=C2Nc3ccccc3C2=O)cc1
15 | 13.8 | c1coc(-c2c3c(nc4ccc5ccccc5c24)CCCC3)c1
16 | 8.93 | Cc1ccc(-c2ccccc2)nc1C
17 | 6.62 | Nc1ccccc1CO
18 | 8.28 | CC(NC(=O)c1cccnc1)C(=O)N1CCCCC1 (configuration not stated)
19 | 9.28 | CC(C)CCCC(C)N (configuration not stated)
20 | 6.32 | NC(CC(=O)O)c1ccc(C(=O)O)cc1 (configuration not stated)
21 | 8.66 | NC(=O)CNC(=O)c1ccc2ccccc2n1
22 | 16.8 | COC1N(c2ccccc2)N=C(c2ccccc2)N1c1ccccc1 (configuration not stated)
23 | 11.6 | O=C(O)c1ccc2[nH]c3c(c2c1)CCCC3
24 | 9.12 | Cn1c(=O)cc(O)c2ccccc21
25 | 16.4 | Cc1ccc2cc(-c3cccs3)[nH]c2c1
26 | 6.56 | O=c1[nH]c2ccccc2[nH]c1=O

Row | LC retention time [min] | Compound
27 | 11.6 | CN1CCN(C(=O)c2cc(C(C)(C)C)cc(C(C)(C)C)c2)CC1
28 | 6.38 | C#CC(C)(C)N
29 | 1.13 | CCN(CC)CC(CP(=O)(O)O)P(=O)(O)O (configuration not stated)
30 | 16 | CC(C)NC(=S)N1CCC(Cc2ccccc2)CC1
31 | 11.2 | O=C(NCCO)C(=O)NC(c1ccccc1)c1ccccc1
32 | 6.66 | Nc1ccccc1N
33 | 9.16 | CCCC[N+]1(CCCC)CC[N+](CCCC)(CCCC)CC1
34 | 8.38 | Cn1c2nc(=O)[nH]c(=O)c-2nc2ccccc21
35 | 21.5 | CCOC(=O)C1=CN(c2cc(C)ccc2C)C=C(C(=O)OCC)C1c1cccc(C)c1
36 | 15.3 | COc1ccccc1C=NNC(=O)c1ccc(C(C)(C)C)cc1
37 | 6.43 | Cc1ccc(C(=O)O)c(=O)[nH]1
38 | 7.73 | CCN(CC)CCNC(=O)c1ccc(N)cc1
39 | 7.26 | NC1Cc2ccccc2NC1=O (configuration not stated)
40 | 12.3 | Cn1c(-c2c(-c3ccc4ccccc4n3)cnc3ccccc23)nc2ccccc21
41 | 12.5 | CCOC(=O)c1[nH]c(C)cc1C
42 | 7.64 | CC(N)CCCC(C)(C)O (configuration not stated)
43 | 5.73 | C=CCN(C)C
44 | 12.1 | COc1cc(N2C=C3N=C(c4ccccc4)NN3C=N2)cc(OC)c1OC
45 | 5.98 | CN(C)C=CC=O
46 | 16.3 | Cc1ccc(-c2cnc3ccccc3n2)cc1
47 | 6.91 | COC(=O)CN1CCCC1=O
48 | 8.27 | CC1CCN(C(=O)C2CCCNC2)CC1 (configuration not stated)
49 | 11.1 | COc1cc(OC)c2cc[nH]c2c1
50 | 8.38 | CCCCNCCCC
51 | 7.39 | CC1(C)CC(N)CC(C)(CN)C1 (configuration not stated)
52 | 8.08 | CNCCOc1ccccc1

Row | LC retention time [min] | Compound
53 | 4.83 | CCCN
54 | 6.39 | CC(=O)Nc1ccc(O)c(NC(C)=O)c1
55 | 8.04 | CC(C)Nc1ccccc1
56 | 6.65 | CC(=O)Nc1ccc(O)cc1
57 | 15.9 | COc1cc(C=CC(=O)c2ccc(C)cc2)cc(OC)c1OC
58 | 8.3 | O=C(NN=Cc1ccncc1)c1ccccc1
59 | 6.98 | CC(C)C(C)N (configuration not stated)
60 | 7.8 | Nc1nc(=O)n2c(n1)oc1ccccc12
61 | 7.45 | O=C(N=CNC(=O)c1cccnc1)c1cccnc1
62 | 14.3 | CCCCOC(=O)C1C(C)=NC(=O)NC1c1ccc(CC)cc1 (configuration not stated)
63 | 13.2 | CC1=C(C(=O)c2ccccc2)CC(C(=O)c2ccccc2)=C(C)N1
64 | 16.6 | COc1ccc(C=CC(=O)C=Cc2ccc(OC)cc2OC)c(OC)c1
65 | 11.4 | CC1=CC(=O)C2CC1C2(C)C (configuration not stated)
66 | 7.87 | Cc1cc(C)nc(NC(N)=NCc2cccnc2)n1
67 | 16.8 | c1ccc(Cn2ccc3ccccc32)cc1
68 | 15.9 | CCOC(=O)C(Cc1ccccc1)n1cccc1 (configuration not stated)
69 | 8.43 | Nc1cccc2c1CCC2
70 | 2.9 | COC(C)C(N)=O (configuration not stated)
71 | 13.1 | Cc1ccc(C=C2CN(C)CC(=Cc3ccc(C)cc3C)C2=O)c(C)c1
72 | 5.51 | O=C(O)CCNc1n[nH]c(=O)[nH]c1=O
73 | 6.8 | Cc1ccnc(C)c1
74 | 9.39 | O=C1C=C(O)C(=O)C1c1ccccc1 (configuration not stated)
75 | 7.72 | O=C(O)CC1C(=O)Nc2ccccc21 (configuration not stated)
76 | 11.1 | CCOC(=O)CC(=O)Nc1ccc(C(=O)OC)cc1
77 | 14.5 | Cn1c2ccccc2c2nc3ccccc3nc21
78 | 12.5 | CNC(=S)Nc1ccc2c(c1)CCCC2

Row | LC retention time [min] | Compound
79 | 6.34 | CC(C)CN
80 | 11.4 | OC1CCCc2c1[nH]c1ccccc21 (configuration not stated)
81 | 6.84 | O=C(Nc1cccnc1)c1ccc(=O)[nH]n1
82 | 10 | Cn1c(=N)n(CC(=O)c2ccccc2)c2ccccc21
83 | 6.81 | NCCCCCC(=O)O
84 | 4.58 | c1ccnnc1
85 | 7.19 | CC(=O)NC(C)c1ccc(O)cc1 (configuration not stated)
86 | 10.8 | Cc1cn(-c2ccccc2)[nH]c1=O
87 | 14.9 | Cc1cc(C)c2c(=O)n(CC(=O)NC(C)CCc3ccccc3)c(=O)n(C)c2n1 (configuration not stated)
88 | 5.58 | CC(=O)C(C)(C)N
89 | 6.05 | Nc1nc2c([nH]c(=O)n2C2CC(O)C(CO)O2)c(=O)[nH]1 (configuration not stated)
90 | 11.2 | O=C(O)CCC(=O)Nc1ccc2c(c1)CCCC2
91 | 9.25 | COc1ccc2nc(C)c3c(c2c1)OC(C)C3 (configuration not stated)
92 | 1.42 | O=C1NC(O)C(O)N1 (configuration not stated)
93 | 11.8 | CCC(=O)c1ccc2c(c1)N(CC(C)N(C)C)c1ccccc1S2 (configuration not stated)
94 | 13.2 | S=C1NC2(CCCCC2)NN1c1ccccc1
95 | 18.2 | Cc1[nH]c(-c2ccccc2)c(-c2ccccc2)c1C(=O)OCc1ccccc1
96 | 12.7 | Cc1cc(C=NNC(N)=S)c(C)n1-c1ccccc1
97 | 7.68 | CCNc1ccccc1
98 | 8.26 | CCC(C)N1CNc2c(c(=O)[nH]c(=O)n2-c2ccc(C)c(C)c2)C1 (configuration not stated)
99 | 18 | COC(=O)c1ccc(C(=O)OC)c(NC(=O)CC(c2ccccc2)c2ccccc2)c1
100 | 6.83 | Nc1ccccc1C(=O)N1CCNC(=O)C1
101 | 15.1 | COC(=O)COC(=O)c1ccccc1NC(=O)c1ccccc1
102 | 9.45 | NC1=NC(=Nc2ccc3c(c2)OCCO3)c2ccccc21
103 | 11.3 | CN(c1ccccc1)c1nc(-n2ccnc2)nc(-n2ccnc2)n1
104 | 8.42 | COc1cc(NC(C)=O)cc(OC)c1OC

Row | LC retention time [min] | Compound
105 | 7.04 | Nc1ccc(CN2CCCC2)cc1
106 | 8.71 | Nc1ccc(Cc2ccncc2)cc1
107 | 11.3 | Cn1ccc2cc(C=O)ccc21
108 | 4.66 | CSC(=N)N
109 | 8.94 | COc1ccc(OC)c2c(C)cc(C)nc12
110 | 10.5 | CCCCNC(=O)NCCCC
111 | 17.8 | CCCCCCCCCn1cc[n+](CCCCCCCCC)c1C
112 | 16.6 | CCCCCCCCCCCC[N+](C)(C)CCOc1ccccc1
113 | 16.5 | CCc1ccc(NCCC(=O)c2ccc(C(C)(C)C)cc2)cc1
114 | 7.02 | CN(C)C(CN)c1ccco1 (configuration not stated)
115 | 12.3 | CCCCCCCCCC[N+](C)(C)C
116 | 14.8 | CCOC(=O)c1ccc(NC(=O)CC(C)(C)C)cc1
117 | 7.13 | COC1=CC(=O)C(=O)C=C1OC
118 | 1.94 | NNC(=O)C(O)C(O)C(=O)NN (configuration not stated)
119 | 7.87 | Nc1cccc(C2OCCCO2)c1
120 | 16.6 | CCCCCCCCCC(=O)N(C)C
121 | 9.27 | CCCCSCCSC(=N)N
122 | 12 | O=C1CN(C(=O)CCCc2c[nH]c3ccccc23)c2ccccc2N1
123 | 7.01 | c1ccc(CN2CCCC2)nc1
124 | 12.1 | Cc1cc(C(c2cc(C)c(N)c(C)c2)c2ccco2)cc(C)c1N
125 | 10.9 | CC(=Nc1ccc(N=Nc2ccccc2)cc1)N(C)C
126 | 12.8 | Cc1ccc2[nH]ccc2c1
127 | 13 | Cc1ccc(C)n1-c1ccc(C(=O)O)cc1
128 | 12.2 | C#CC(C)(CC)NC(=O)Cc1ccccc1 (configuration not stated)
129 | 11.2 | Cn1nc(-c2ccccc2)c(-c2ccccc2)c(C(=O)O)c1=O

Row | Compound | LC retention time [min]
130 | CCOC(=O)C1(c2ccccc2)CCN(CCc2ccc(N)cc2)CC1 | 10.1
131 | Cc1cccc(-n2c(C)nc3ccccc3c2=O)c1 | 11.9
132 | COc1ccc(N)cc1 | 7.59
133 | CNCCc1ccccc1 | 7.97
134 | Cc1ccccc1N1C(=O)NC(=O)C(=Cc2cccn2C)C1=O | 10.9
135 | Cc1ccccc1N | 7.59
136 | CNc1ccccc1 | 7.27
137 | C[N+]1(C)CCCCC1 | 5.95
